Reference: patent US4472376A, “Pharmaceutical insertion compositions and a process for producing the same” (Toko Yakuhin Kogyo Kabushiki Kaisha, priority 1976, dated 1984)

Assays:
[1] = Concentration of 5-fluorouracil in the serum after insertion into the rectum of a rabbit; assay type: in vivo; settings: insertion composition of Example 16, rabbit; 3 hours after the insertion
Protocol: When the pharmaceutical insertion composition of the present invention is inserted into the rectum, its concentration in the serum is as follows:
A pharmaceutical insertion composition obtained in Example 16 is inserted into the rectum of a rabbit having the body weight of 3.2 kg at the rate of 20 mg of 5-fluoroaracil per 1 kg of the body weight, and the concentration of 5-fluorouracil in the serum after the insertion is measured to show the following results: […]

[2] = 5-fluorouracil blood concentration / absorption by other dosage forms, compared with effective concentration in blood; assay type: in vivo
From the text: Thus, it has been clearly known that the dosage in the form of the insertion composition of the present invention is quite excellent.

[3] = known value; cited from earlier work

absorption from conventional suppository or liquid form ([2]; conventional suppository or liquid): barely absorbed
SMILES: O=c1[nH]cc(F)c(=O)[nH]1 [5-fluorouracil]
maintenance of effective concentration in blood after rectal insertion of the gel composition [1]: maintains sufficient effective concentration in blood
concentration in blood after injection into vein ([2]; injected into vein, 30 minutes later): less than the effective blood concentration
effective concentration in blood [3]: about 0.08 μg/ml
